Data: patent publication US7893045B2, “Methods for treating lymphomas in certain patient populations and screening patients for said therapy” (Celgene Corporation, priority 2007, dated 2011)

Assays:
[1] = system: relapsed and refractory aggressive non-Hodgkin's lymphoma (NHL); assay: Clinical Study 1: Phase II oral lenalidomide monotherapy in relapsed and refractory aggressive NHL; assay type: in vivo, human; details: for Median progression-free survival: FIG. 1
Procedure: A multi-center, open-label, Phase II study was conducted in patients with relapsed and refractory aggressive non-Hodgkin's lymphoma (NHL). The trial was designed for oral monotherapy with 3-(4-amino-1-oxo-1,3-dihydro-isoindol-2-yl)-piperidin-2,6-dione (Revlimid® or lenalidomide) in 49 patients with relapsed and refractory aggressive NHL following one or more prior treatment regimen with measurable disease. Patients in the study received lenalidomide in an amount of 25 mg orally once daily for days one to 21 in a 28-day cycle and continued therapy for 52 weeks as tolerated or until disease progression. A patient who achieved a complete response during the 52 week period was to receive two additional cycles of treatment prior to discontinuing treatment and entering the follow-up phase.
The patients who had received a median of 4 prior treatments (range: 1-7 prior treatments), were administered with lenalidomide in an amount of 25 mg orally once daily for 21 days in the treatment cycle of 28 days. Of the 49 patients, 26 had diffuse large cell lymphoma, 15 had mantle cell lymphoma, five patients had follicular lymphoma, and three had transformed lymphoma. Median time from diagnosis was 2.7 years (range 0.4-32) and patients had received a median of 4 (range […]) prior drug regimens for NHL. Ninety-three percent of the patients had received prior rituximab and 63% of the patients were rituximab refractory.

aggressive NHL [2] = assay: Study 1 and 2 taken together: response by predictive factors; assay type: in vivo, human
aggressive NHL [3] = assay: Clinical Study 2: lenalidomide monotherapy in aggressive NHL; assay type: in vivo, human
Procedure: In a separate clinical study, 86 patients received at least 25 mg of lenalidomide once daily on Days 1-21 every 28 days and continued therapy as tolerated or until disease progression. Forty-eight of these patients were evaluable for response assessment (Table 3). The median age was 65 years. The most common histology was DLBCL (63%). The median time from diagnosis to lenalidomide treatment was 2 years. Patients received a median of 4 prior treatment regimens for NHL. Median time from last rituximab treatment was 297 days. […] Ninety-six percent of the patients had received prior rituximab.

[4] = system: peripheral T-cell lymphomas (PTCL); assay: Clinical Study 3: Phase II lenalidomide for peripheral T-cell lymphomas; assay type: in vivo; details: about 25 mg orally daily for 21 days followed by 7 days of rest; ten patients
Procedure: A multi-center, open label, phase II study was conducted to evaluate the efficacy of 3-(4-amino-1-oxo-1,3-dihydro-isoindol-2-yl)-piperidin-2,6-dione (lenalidomide) for peripheral T-cell lymphomas (PTCL). Patients with relapsed or refractory disease were eligible, as well as patients who had not previously had systemic therapy but who were ineligible for standard curative chemotherapy regimens due to comorbid illness. Each cycle (28 days) of treatment comprises administration of about 25 mg of 3-(4-amino-1-oxo-1,3-dihydro-isoindol-2-yl)-piperidin-2,6-dione (lenalidomide) given orally daily for 21 days followed by 7 days of rest, until disease progression, death or unacceptable toxicity.
Ten (9 males and 1 female) patients were enrolled. Median age of participants was 56 years (range, 42-76 years). Histologies of the patients included PTCL unspecified (n=4), angioimmunoblastic T-cell lymphoma (n=4), anaplastic large cell lymphoma (n=1), and gamma/delta T-cell lymphoma (n=1). Median number of prior lines of systemic therapy was one (range, 0-3). Median number of cycles was two (range, 1-8).

[5] = Aggressive, n=49, 25 mg orally once daily days 1-21 of 28-day cycle
[6] = DLBCL, n=26, 25 mg daily days 1-21 of 28
[7] = FCL, n=5, 25 mg daily days 1-21 of 28
[8] = MCL, n=15, 25 mg daily days 1-21 of 28
[9] = TSF, n=3, 25 mg daily days 1-21 of 28
[10] = of fourteen patients with SD at cycle 2
[11] = the four rituximab naïve patients
[12] = Study 1 and 2, time from rituximab <230 days, 40 patients
[13] = Study 1 and 2, time from rituximab ≧230 days, 57 patients
[14] = Study 1 and 2, tumor burden <50 cm^2, 66 patients
[15] = Study 1 and 2, tumor burden ≧50 cm^2, 29 patients
[16] = Aggressive NHL, 48 evaluable patients, at least 25 mg once daily Days 1-21 every 28 days
[17] = Diffuse large B-cell, 30 patients
[18] = Follicular center lymphoma grade 3, 1 patient
[19] = Mantle cell lymphoma, 14 patients
[20] = Transformed lymphoma, 3 patients

Nc1cccc2c1CN(C1CCC(=O)NC1=O)C2=O (centres unmarked) [lenalidomide, 3-(4-amino-1-oxo-1,3-dihydro-isoindol-2-yl)-piperidine-2,6-dione]
response to lenalidomide ([1]; <230 days since last rituximab therapy): 6%
response to lenalidomide ([1]; >=230 days since last rituximab therapy): 52%
CR, complete response (patients) [1, 5]: 2
CRu, complete response unconfirmed (patients) [1, 5]: 4
PD, progressive disease (patients) [1, 5]: 21
PR, partial response (patients) [1, 5]: 11
RR, response rate [1, 5]: 35%
CR, complete response (patients) ([1]; DLBCL, diffuse large B-cell lymphoma, n=26, 25 mg daily days 1-21 of 28): 1
CRu, complete response unconfirmed (patients) [1, 6]: 2
PD, progressive disease (patients) [1, 6]: 14
PR, partial response (patients) [1, 6]: 2
RR, response rate [1, 6]: 19%
CR, complete response (patients) ([1]; FCL, follicular-center lymphoma, n=5, 25 mg daily days 1-21 of 28): 0
CRu, complete response unconfirmed (patients) [1, 7]: 1
PD, progressive disease (patients) [1, 7]: 2
PR, partial response (patients) [1, 7]: 2
RR, response rate [1, 7]: 60%
CR, complete response (patients) ([1]; MCL, mantle cell lymphoma, n=15, 25 mg daily days 1-21 of 28): 1
CRu, complete response unconfirmed (patients) [1, 8]: 1
PD, progressive disease (patients) [1, 8]: 5
PR, partial response (patients) [1, 8]: 6
RR, response rate [1, 8]: 53%
CRu, complete response unconfirmed (patients) [1, 9]: 0
PD, progressive disease (patients) [1, 9]: 0
PR, partial response (patients) [1, 9]: 1
RR, response rate [1, 9]: 33%
CR, complete response (patients) ([1]; TSF, transformed lymphoma, n=3, 25 mg daily days 1-21 of 28): 0
response to lenalidomide ([1]; absolute lymphocyte count <=0.6×10^9/L): 9%
response to lenalidomide ([1]; absolute lymphocyte count >0.6×10^9/L): 42%
patients with initial PR at 2 cycles who went on to CR/CRu with continued treatment ([1]; continued treatment): four
Response Rate ([1]; favorable values of disease burden, absolute lymphocyte count and time since last rituximab (n=23)): 65%
patients with stable disease at the first (cycle 2) assessment ([1]; first assessment, cycle 2): Fourteen
response to lenalidomide ([1]; largest tumor lesion <=4.5 cm): 55%
response to lenalidomide ([1]; largest tumor lesion >4.5 cm): 5%
patients with SD or PR at first assessment who improved their response with continued treatment ([1]; of 28 patients): seven
share of patients with SD or PR at first assessment who improved their response ([1]; of 28 patients): 25%
patients with an objective response ([1]; of 49 patients): Seventeen
patients with SD at first assessment who went on to exhibit a response with continued treatment [1, 10]: three
share of patients with SD at first assessment who went on to exhibit a response [1, 10]: 21%
response to lenalidomide ([1]; patients not refractory to rituximab): 31%
response to lenalidomide ([1]; patients refractory to rituximab): 30%
Median progression-free survival ([1]; patients with favorable prognostic values): 7.5 months
Median progression-free survival ([1]; patients with poor prognostic factors): 1.9 months
patients with CR [1, 11]: two
patients with PR [1, 11]: 1
patients with SD [1, 11]: 1
response to lenalidomide ([1]; tumor burden <50 cm^2): 52%
response to lenalidomide ([1]; tumor burden >=50 cm^2): 0%
Response Rate ([1]; unfavorable values for these prognostic values (n=26)): 8%
Median progression-free survival ([1]; whole group (all patients), Kaplan-Meier): 3.7 months
Responders (aggressive NHL [2]; Study 1 and 2, Favorable = tumor burden <50 cm^2 and time since last rituximab ≧230 days, 43 patients): 26
Response Rate (ORR) (aggressive NHL [2]; Study 1 and 2, Favorable = tumor burden <50 cm^2 and time since last rituximab ≧230 days, N=43): 60%
Responders (aggressive NHL [2]; Study 1 and 2, Unfavorable = tumor burden ≧50 cm^2 and/or time since last rituximab <230 days, 54 patients): 4
Response Rate (ORR) (aggressive NHL [2]; Study 1 and 2, Unfavorable = tumor burden ≧50 cm^2 and/or time since last rituximab <230 days, N=54): 7.4%
Responders (aggressive NHL [2]; [12]): 2
Response Rate (aggressive NHL [2]; [12]): 5%
Responders (aggressive NHL [2]; [13]): 28
Response Rate (aggressive NHL [2]; [13]): 49%
Responders (aggressive NHL [2]; [14]): 28
Response Rate (aggressive NHL [2]; [14]): 42%
Responders (aggressive NHL [2]; [15]): 2
Response Rate (aggressive NHL [2]; [15]): 6.9%
duration of response (aggressive NHL [2]; Study 1 and 2 taken together): approximately 6 months
Response Rate (aggressive NHL [2]; Study 1 and 2 taken together, all patients): 31%
side effects (aggressive NHL [2]; Study 1 and 2 taken together, monotherapy in aggressive NHL): manageable hematological side effects
response to lenalidomide (aggressive NHL [3]; <230 days from rituximab to lenalidomide treatment): 5%
ORR, overall response rate (aggressive NHL [3]; [16]): 27%
PD, progressive disease (patients) (aggressive NHL [3]; [16]): 25
PR, partial response (patients) (aggressive NHL [3]; [16]): 12
CR, complete response (patients) (aggressive NHL [3]; [17]): 1
ORR, overall response rate (aggressive NHL [3]; [17]): 20%
PD, progressive disease (patients) (aggressive NHL [3]; [17]): 19
PR, partial response (patients) (aggressive NHL [3]; [17]): 5
CR, complete response (patients) (aggressive NHL [3]; [18]): 0
ORR, overall response rate (aggressive NHL [3]; [18]): 100%
PD, progressive disease (patients) (aggressive NHL [3]; [18]): 0
PR, partial response (patients) (aggressive NHL [3]; [18]): 1
CR, complete response (patients) (aggressive NHL [3]; [19]): 0
ORR, overall response rate (aggressive NHL [3]; [19]): 36%
PD, progressive disease (patients) (aggressive NHL [3]; [19]): 9
PR, partial response (patients) (aggressive NHL [3]; [19]): 5
CR, complete response (patients) (aggressive NHL [3]; [20]): 0
ORR, overall response rate (aggressive NHL [3]; [20]): 33%
PD, progressive disease (patients) (aggressive NHL [3]; [20]): 1
PR, partial response (patients) (aggressive NHL [3]; [20]): 1
ORR (aggressive NHL [3]; favorable values for both tumor burden and time from rituximab (N=19)): 53%
response to lenalidomide (aggressive NHL [3]; tumor burden <50 cm^2): 33%
response to lenalidomide (aggressive NHL [3]; tumor burden ≧50 cm^2): 14%
ORR (aggressive NHL [3]; unfavorable values (N=29)): 10%
response to lenalidomide (aggressive NHL [3]; ≧230 days from rituximab to lenalidomide treatment): 46%
efficacy in peripheral T-cell lymphomas [4]: effective in treating peripheral T-cell lymphomas
tolerability of therapy [4]: generally been well tolerated
